In patent US7282515B2, “Derivatives of azaspiro compounds for the treatment of pain” (Schwarz Pharma AG, priority 2002, dated 2007):

Legend:
NMRI mice = test: formalin test (in-vivo test for analgesic effectiveness); set-up: key to Mean deviation of the pain reaction compared to control (%) 30–35′ after administration of formalin / Mean deviation of the pain reaction compared to control (%) 20–25′ after administration of formalin: (+): Intensified pain reaction
Method: (§1) In each case, the maximum dosage selected for the concentration of azaspiro compounds was held, by a factor of about 2, below the toxic dose previously determined in the IRWIN test (Irwin, Psychopharmacologia 13 (1968) 222).
A reduction in the pain reaction is expressed in negative percentage figures.
1. In-vivo Test for Determining the Analgesic Effectiveness of the Azaspiro Compounds
The test was conducted as described by Wheeler-Aceto (Psychopharmacology 104, 1991, 35).
NMRI mice having a weight of 20-25 g were kept under controlled conditions (22±2° C., 40-70% relative humidity). 25 μl of a 5% formocarbonyl solution was injected in the hind leg and the leg-licking frequency was then clocked for 5 minutes each at defined intervals (20, 30, 40 minutes).
Next, for the formalin test, the test substances were dissolved in a physiological salt solution with 0.5% sodium carboxymethyl cellulose and were each measured in 1-3 dosages that had been applied intraperitoneally 10 minutes before administration of formalin. The comparative reference value was provided by a control excipient (10 ml/kg).
The test was performed in blind fashion on 10 mice per test series. The evaluation was based on a comparison of the treated animals with control excipients at three different times. […] Accordingly, an average 50% reduction of the pain reaction for the treated animals is obtained when in a defined period (e.g. 30-35′ after the formalin injection) the leg-licking duration (averaged over the 10 test animals) is reduced by 50% compared to the untreated animals. The statistical significance was determined using the Mann-Whitney U-test.

[1] = IRWIN test (toxic dose / maximally tolerable dosage); assay type: in vivo
Method: as §1, with “FIG. 1 and Table 1 show the reaction of test animals 20-45 minutes after the intraperitoneal administration of selected compounds. In” for “In”
First, the highest possible non-toxic concentration of the respective test substances that could be used was determined by an IRWIN test (Irwin, Psychopharmacologia 13, 1968, 222).

[2] = 8 mg/kg i.p., Test series 1 (n = 10)
[3] = 8 mg/kg i.p., Test series 2 (n = 10)
[4] = 16 mg/kg i.p., Test series 1 (n = 10)
[5] = 16 mg/kg i.p., Test series 2 (n = 10)
[6] = 32 mg/kg i.p., Test series 1 (n = 10)
[7] = 32 mg/kg i.p., Test series 2 (n = 10)
[8] = 4 mg/kg i.p., Test series 2 (n = 10)
[9] = 64 mg/kg i.p., Test series 1 (n = 10)
[10] = 64 mg/kg i.p., Test series 2 (n = 10)
[11] = 32 mg/kg i.p., (n = 10), no test series named

| Compound | Mean deviation of the pain reaction compared to control (%) 20–25′ after administration of formalin (NMRI mice; [4]) | Mean deviation of the pain reaction compared to control (%) 30–35′ after administration of formalin (NMRI mice; [4]) | Mean deviation of the pain reaction compared to control (%) 20–25′ after administration of formalin (NMRI mice; [5]) | Mean deviation of the pain reaction compared to control (%) 30–35′ after administration of formalin (NMRI mice; [5]) | Mean deviation of the pain reaction compared to control (%) 40–45′ after administration of formalin (NMRI mice; [5]) | Mean deviation of the pain reaction compared to control (%) 20–25′ after administration of formalin (NMRI mice; [6]) | Mean deviation of the pain reaction compared to control (%) 30–35′ after administration of formalin (NMRI mice; [6]) | Mean deviation of the pain reaction compared to control (%) 40–45′ after administration of formalin (NMRI mice; [4]) | Mean deviation of the pain reaction compared to control (%) 40–45′ after administration of formalin (NMRI mice; [6]) | Mean deviation of the pain reaction compared to control (%) 20–25′ after administration of formalin (NMRI mice; [9]) | Mean deviation of the pain reaction compared to control (%) 30–35′ after administration of formalin (NMRI mice; [9]) | Mean deviation of the pain reaction compared to control (%) 40–45′ after administration of formalin (NMRI mice; [9]) | also measured |
| --- | --- | --- | --- | --- | --- | --- | --- | --- | --- | --- | --- | --- | --- |
| O=C1CC2(CCCCC2)CN1 [GPL, 2-azaspiro[4.5]decan-3-on, reference compound] | (+) | (+) | −74% | −40% | −41% | (+) | −10% | – | – | – | – | – | Mean deviation of the pain reaction compared to control (%) 20–25′ after administration of formalin (NMRI mice; [2]): (+); Mean deviation of the pain reaction compared to control (%) 30–35′ after administration of formalin (NMRI mice; [2]): (+); Mean deviation of the pain reaction compared to control (%) 20–25′ after administration of formalin (NMRI mice; [3]): −58%; Mean deviation of the pain reaction compared to control (%) 30–35′ after administration of formalin (NMRI mice; [3]): −18%; Mean deviation of the pain reaction compared to control (%) 40–45′ after administration of formalin (NMRI mice; [3]): −15%; Mean deviation of the pain reaction compared to control (%) 20–25′ after administration of formalin (NMRI mice; [7]): −64%; Mean deviation of the pain reaction compared to control (%) 30–35′ after administration of formalin (NMRI mice; [7]): −15%; Mean deviation of the pain reaction compared to control (%) 40–45′ after administration of formalin (NMRI mice; [7]): −46%; side effects above the maximally tolerable dosages (sedation, tremor, hypothermia) [1]: significant lethality rate |
| O=C1NC(=O)C2(CCCCC2)N1 [SPM 10011, 1,3-diazaspiro[4.5]decane-2,4-dion] | −75% | −11% | −84% | −21% | −34% | −82% | −64% | −55% | −64% | −100% | −100% | −80% | Mean deviation of the pain reaction compared to control (%) 20–25′ after administration of formalin (NMRI mice; [8]): −62%; Mean deviation of the pain reaction compared to control (%) 30–35′ after administration of formalin (NMRI mice; [8]): (+); Mean deviation of the pain reaction compared to control (%) 20–25′ after administration of formalin (NMRI mice; [10]): −100%; Mean deviation of the pain reaction compared to control (%) 30–35′ after administration of formalin (NMRI mice; [10]): −100%; Mean deviation of the pain reaction compared to control (%) 40–45′ after administration of formalin (NMRI mice; [10]): −97% |
| S=C1NC(=S)C2(CCCCC2)N1 [SPM 10013, 1,3-diazaspiro[4.5]decane-2,4-dithion] | −60% | −14% | – | – | – | −82% | −60% | −49% | −30% | −98% | −95% | −78% | – |
| O=C1NCC2(CCCCC2)N1 [SPM 10019, 1,3-diazaspiro[4.5]decane-2-on] | – | – | – | – | – | – | – | – | – | – | – | – | Mean deviation of the pain reaction compared to control (%) 20–25′ after administration of formalin (NMRI mice; [11]): −52%; Mean deviation of the pain reaction compared to control (%) 40–45′ after administration of formalin (NMRI mice; [11]): −40% |
